Test results from PubChem BioAssay AID2060612 (Molecular Pharmacology Branch, DTP, NCI, 2025).
“And” between values parts separate entries of the source, which are not always exact repeats. Identical values can stand only once.

Test system: 565232-114-T-J1-PDC complex spheroid viability
Test: Anticancer human tumor 565232-114-T-J1-PDC patient-derived bladder carcinoma cell line growth inhibition [CLK]
Conditions: for viability, T/C: stronger effect = lower value
In short: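 Multi-cell-type spheroids combined patient-derived tumor cells with HUVEC endothelial cells and human mesenchymal stem cells. Paired agents were dosed in half-log steps down from about clinical Cmax, or from 10 microM where Cmax was unknown.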

[1] = curve of first compound, second compound 0.0316 µM
[2] = curve of first compound, second compound 0.1 µM
[3] = curve of first compound, second compound 0.316 µM
[4] = curve of first compound, second compound 1 µM
[5] = curve of first compound, second compound 3.16 µM
[6] = curve of first compound, second compound 10 µM
[7] = second compound 0.0316 µM, first compound 0.00316 µM
[8] = second compound 0.0316 µM, first compound 0.01 µM
[9] = second compound 0.0316 µM, first compound 0.0316 µM
[10] = second compound 0.0316 µM, first compound 0.1 µM
[11] = second compound 0.0316 µM, first compound 0.316 µM
[12] = second compound 0.0316 µM, first compound 1 µM
[13] = second compound 0.1 µM, first compound 0.00316 µM
[14] = second compound 0.1 µM, first compound 0.01 µM
[15] = second compound 0.1 µM, first compound 0.0316 µM
[16] = second compound 0.1 µM, first compound 0.1 µM
[17] = second compound 0.1 µM, first compound 0.316 µM
[18] = second compound 0.1 µM, first compound 1 µM
[19] = second compound 0.316 µM, first compound 0.00316 µM
[20] = second compound 0.316 µM, first compound 0.01 µM
[21] = second compound 0.316 µM, first compound 0.0316 µM
[22] = second compound 0.316 µM, first compound 0.1 µM
[23] = second compound 0.316 µM, first compound 0.316 µM
[24] = second compound 0.316 µM, first compound 1 µM
[25] = second compound 1 µM, first compound 0.00316 µM
[26] = second compound 1 µM, first compound 0.01 µM
[27] = second compound 1 µM, first compound 0.0316 µM
[28] = second compound 1 µM, first compound 0.1 µM
[29] = second compound 1 µM, first compound 0.316 µM
[30] = second compound 1 µM, first compound 1 µM
[31] = second compound 3.16 µM, first compound 0.00316 µM
[32] = second compound 3.16 µM, first compound 0.01 µM
[33] = second compound 3.16 µM, first compound 0.0316 µM
[34] = second compound 3.16 µM, first compound 0.1 µM
[35] = second compound 3.16 µM, first compound 0.316 µM
[36] = second compound 3.16 µM, first compound 1 µM
[37] = second compound 10 µM, first compound 0.00316 µM
[38] = second compound 10 µM, first compound 0.01 µM
[39] = second compound 10 µM, first compound 0.0316 µM
[40] = second compound 10 µM, first compound 0.1 µM
[41] = second compound 10 µM, first compound 0.316 µM
[42] = second compound 10 µM, first compound 1 µM
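Further: spheroids exposed to compounds for 7 days before readout.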
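Wherever viability, T/C is given: 100% = DMSO vehicle wells with luminescence normalized to vehicle control.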

## NC(=O)C(=Cn1cnc(-c2cc(C(F)(F)F)cc(C(F)(F)F)c2)n1)c1cncnc1 + CN1CCN(c2cc(C(=O)Nc3cc4cc(-c5cnn(C)c5)ccc4cn3)ccn2)CC1
[1]
  IC50: 384 nM
[2]
  IC50: 190 nM
[3]
  IC50: < 9.49 nM
[4]
  IC50: < 9.49 nM
[5]
  IC50: < 9.49 nM
[6]
  IC50: < 9.49 nM
Second compound 0.0316 µM, first compound 0.00949 µM
  viability, T/C: 110%
Second compound 0.0316 µM, first compound 0.03 µM
  viability, T/C: 79.4%
Second compound 0.0316 µM, first compound 0.0949 µM
  viability, T/C: 116%
Second compound 0.0316 µM, first compound 0.3 µM
  viability, T/C: 63%
Second compound 0.0316 µM, first compound 0.949 µM
  viability, T/C: 2.12%
Second compound 0.0316 µM, first compound 3 µM
  viability, T/C: 2.86%
Second compound 0.1 µM, first compound 0.00949 µM
  viability, T/C: 112%
Second compound 0.1 µM, first compound 0.03 µM
  viability, T/C: 89.6%
Second compound 0.1 µM, first compound 0.0949 µM
  viability, T/C: 69.7%
Second compound 0.1 µM, first compound 0.3 µM
  viability, T/C: 44.2%
Second compound 0.1 µM, first compound 0.949 µM
  viability, T/C: 1.42%
Second compound 0.1 µM, first compound 3 µM
  viability, T/C: 0.17%
Second compound 0.316 µM, first compound 0.00949 µM
  viability, T/C: 11.2%
Second compound 0.316 µM, first compound 0.03 µM
  viability, T/C: 19.1%
Second compound 0.316 µM, first compound 0.0949 µM
  viability, T/C: 4.82%
Second compound 0.316 µM, first compound 0.3 µM
  viability, T/C: 0.31%
Second compound 0.316 µM, first compound 0.949 µM
  viability, T/C: 0.21%
Second compound 0.316 µM, first compound 3 µM
  viability, T/C: 0.15%
Second compound 1 µM, first compound 0.00949 µM
  viability, T/C: 0.13%
Second compound 1 µM, first compound 0.03 µM
  viability, T/C: 1.42%
Second compound 1 µM, first compound 0.0949 µM
  viability, T/C: 0.31%
Second compound 1 µM, first compound 0.3 µM
  viability, T/C: 0.24%
Second compound 1 µM, first compound 0.949 µM
  viability, T/C: 0.19%
Second compound 1 µM, first compound 3 µM
  viability, T/C: 0.08%
Second compound 3.16 µM, first compound 0.00949 µM
  viability, T/C: 0.19%
Second compound 3.16 µM, first compound 0.03 µM
  viability, T/C: 0.22%
Second compound 3.16 µM, first compound 0.0949 µM
  viability, T/C: 3.11%
Second compound 3.16 µM, first compound 0.3 µM
  viability, T/C: 0.24%
Second compound 3.16 µM, first compound 0.949 µM
  viability, T/C: 1.65%
Second compound 3.16 µM, first compound 3 µM
  viability, T/C: 0.16%
Second compound 10 µM, first compound 0.00949 µM
  viability, T/C: 0.14%
Second compound 10 µM, first compound 0.03 µM
  viability, T/C: 0.12%
Second compound 10 µM, first compound 0.0949 µM
  viability, T/C: 1.13%
Second compound 10 µM, first compound 0.3 µM
  viability, T/C: 0.76%
Second compound 10 µM, first compound 0.949 µM
  viability, T/C: 0.21%
Second compound 10 µM, first compound 3 µM
  viability, T/C: 0.37%

## COc1cccc2c1C(=O)c1c(O)c3c(c(O)c1C2=O)CC(O)(C(=O)CO)CC3OC1CC(N)C(O)C(C)O1 (stereo not drawn)
Compound 0.0316 µM
  viability, T/C: 93.4% and 109%
Compound 0.1 µM
  viability, T/C: 85.3% and 45.3%
Compound 0.316 µM
  viability, T/C: 78.4% and 15.7%
Compound 1 µM
  viability, T/C: 16.1% and 0.8%
Compound 3.16 µM
  viability, T/C: 0.18% and 0.27%
Compound 10 µM
  viability, T/C: 0.14% and 0.26%
Curve of compound
  IC50: 533 nM and 92.5 nM

## CCN1CCN(Cc2ccc(Nc3ncc(F)c(-c4cc(F)c5nc(C)n(C(C)C)c5c4)n3)nc2)CC1 + CNC(=O)c1ccc(Nc2nc(OC3CCCC3)c3c(-c4ccc5nc(C)oc5c4)c[nH]c3n2)c(OC)c1
[1]
  IC50: > 1000 nM
[2]
  IC50: > 1000 nM
[3]
  IC50: < 3.16 nM
[4]
  IC50: < 3.16 nM
[5]
  IC50: < 3.16 nM
[6]
  IC50: < 3.16 nM
[7]
  viability, T/C: 84.4%
[8]
  viability, T/C: 81.1%
[9]
  viability, T/C: 84.7%
[10]
  viability, T/C: 82.6%
[11]
  viability, T/C: 119%
[12]
  viability, T/C: 129%
[13]
  viability, T/C: 53.9%
[14]
  viability, T/C: 56.5%
[15]
  viability, T/C: 48.7%
[16]
  viability, T/C: 64%
[17]
  viability, T/C: 58.3%
[18]
  viability, T/C: 66.7%
[19]
  viability, T/C: 32.8%
[20]
  viability, T/C: 40.6%
[21]
  viability, T/C: 32.6%
[22]
  viability, T/C: 38.2%
[23]
  viability, T/C: 42.3%
[24]
  viability, T/C: 46.4%
[25]
  viability, T/C: 23.9%
[26]
  viability, T/C: 26.5%
[27]
  viability, T/C: 24.7%
[28]
  viability, T/C: 34.2%
[29]
  viability, T/C: 35.8%
[30]
  viability, T/C: 39.2%
[31]
  viability, T/C: 18.1%
[32]
  viability, T/C: 19%
[33]
  viability, T/C: 25%
[34]
  viability, T/C: 22.9%
[35]
  viability, T/C: 27.2%
[36]
  viability, T/C: 37%
[37]
  viability, T/C: 19.9%
[38]
  viability, T/C: 18.4%
[39]
  viability, T/C: 21.7%
[40]
  viability, T/C: 22.5%
[41]
  viability, T/C: 31.2%
[42]
  viability, T/C: 27.1%

## CCc1c2c(nc3ccc(O)cc13)-c1cc3c(c(=O)n1C2)COC(=O)[C@]3(O)CC + CN1CCN(c2cc(C(=O)Nc3cc4cc(-c5cnn(C)c5)ccc4cn3)ccn2)CC1
[1]
  IC50: 36 nM
[2]
  IC50: 13.9 nM
[3]
  IC50: < 3.16 nM
[4]
  IC50: < 3.16 nM
[5]
  IC50: < 3.16 nM
[6]
  IC50: < 3.16 nM
[7]
  viability, T/C: 96.6%
[8]
  viability, T/C: 61.8%
[9]
  viability, T/C: 54.6%
[10]
  viability, T/C: 38.5%
[11]
  viability, T/C: 16.3%
[12]
  viability, T/C: 5.15%
[13]
  viability, T/C: 113%
[14]
  viability, T/C: 48.3%
[15]
  viability, T/C: 39.1%
[16]
  viability, T/C: 21.1%
[17]
  viability, T/C: 7.93%
[18]
  viability, T/C: 3.53%
[19]
  viability, T/C: 18.2%
[20]
  viability, T/C: 17.8%
[21]
  viability, T/C: 13.5%
[22]
  viability, T/C: 5.02%
[23]
  viability, T/C: 1.56%
[24]
  viability, T/C: 2.33%
[25]
  viability, T/C: 0.86%
[26]
  viability, T/C: 0.17%
[27]
  viability, T/C: 1.6%
[28]
  viability, T/C: 0.24%
[29]
  viability, T/C: 0.5%
[30]
  viability, T/C: 1.14%
[31]
  viability, T/C: 0.22%
[32]
  viability, T/C: 1%
[33]
  viability, T/C: 0.2%
[34]
  viability, T/C: 0.12%
[35]
  viability, T/C: 1.33%
[36]
  viability, T/C: 2.74%
[37]
  viability, T/C: 0.22%
[38]
  viability, T/C: 1.67%
[39]
  viability, T/C: 0.18%
[40]
  viability, T/C: 0.17%
[41]
  viability, T/C: 1.26%
[42]
  viability, T/C: 0.19%
